Source: US9540314B2, “N-cycloalkyl-N-[(cycloalkenylphenyl)methylene]-(thio) carboxamide derivatives” (BAYER INTELLECTUAL PROPERTY GMBH, priority 2012, dated 2017)

Legend:
[1] = tested on: Puccinia recondita; assay: In vivo preventive test on Puccinia recondita (brown rust on wheat); conditions: 500 ppm of active ingredient; wheat plants, preventive spray; grading 12 days after contamination
Description: (§1) The active ingredients tested are prepared by homogenization in a mixture of acetone/tween/DMSO, and then diluted with water to obtain the desired active material concentration.
(§2) Wheat plants (“Scipion” variety), sown in starter cups on a 50/50 peat soil pozzolana substrate and grown at 22° C., are treated at the 1 leaf stage (10 cm height) by spraying with the active ingredient prepared as described above. Plants, used as controls, are treated with the mixture of acetone/tween/DMSO/water not containing the active material.
(§3) After 24 hours, the plants are contaminated by spraying the leaves with an aqueous suspension of Puccinia recondita spores (100 000 spores per mL). The spores are collected from an infected plant and are suspended in water containing 2.5 mL/L of Tween 80 at 10%. The contaminated wheat plants are incubated for 24 hours at 20° C. and at 100% relative humidity, and then for 10 days at 20° C. and at 70-80% relative humidity.
(§4) Grading (% of efficacy) is carried out 12 days after the contamination, in comparison with the control plants.
Under these conditions, good (at least 70%) to total protection is observed at a dose of 500 ppm of active ingredient with the following compounds from table I: […]

[2] = tested on: Septoria tritici; assay: In vivo preventive test on Septoria tritici (wheat); conditions: 500 ppm of active ingredient; wheat plants, preventive spray; grading 24 days after contamination
Description: as §1, §2
After 24 hours, the plants are contaminated by spraying the leaves with an aqueous suspension of cryopreserved Septoria tritici spores (500 000 spores per mL). The contaminated wheat plants are incubated for 72 hours at 18° C. and at 100% relative humidity, and then for 21 days at 90% relative humidity.
Grading (% of efficacy) is carried out 24 days after the contamination, in comparison with the control plants.
Under these conditions, good (at least 70%) to total protection is observed at a dose of 500 ppm of active ingredient with the following compounds from table J: […]

[3] = tested on: Sphaerotheca fuliginea; assay: In vivo preventive test on Sphaerotheca fuliginea (powdery mildew on cucurbits); conditions: 500 ppm, gherkin plants, grading 12 days after contamination
Description: (§5) The active ingredients tested are prepared by homogenization in a mixture of acetone/tween/DMSO and then diluted with water to obtain the desired active material concentration.
Gherkin plants (“Vert petit de Paris” variety), sown in starter cups on a 50/50 peat soil-pozzolana substrate and grown at 24° C., are treated at the Z11 cotyledon stage by spraying with the active ingredient prepared as described above. Plants, used as controls, are treated with the mixture of acetone/tween/DMSO/water not containing the active material.
After 24 hours, the plants are contaminated by spraying the cotyledons with an aqueous suspension of Sphaerotheca fuliginea spores (100 000 spores per mL). The spores are collected from infected plants. The contaminated gherkin plants are incubated at about 20° C. and at 70-80% relative humidity.
as §4
Under these conditions, good (at least 70%) to total protection is observed at a dose of 500 ppm of active ingredient with the following compounds from table A: […]

[4] = tested on: Uromyces appendiculatus; assay: In vivo preventive test on Uromyces appendiculatus (bean rust); conditions: bean plants
Description: as §1
as §3, with “of Uromyces appendiculatus” for “of Puccinia recondita”, “spores (150” for “spores (100”, “from” for “from an”, “infected plants” for “infected plant”, “contaminated bean” for “contaminated wheat”
Grading (% of efficacy) is carried out 11 days after the contamination, in comparison with the control plants.

[5] = log P by HPLC on a reversed-phase column (C 18), EEC Directive 79/831 Annex V.A8; type: physicochemical; conditions: Table 1, HPLC C 18, 40° C., 0.1% aqueous formic acid and acetonitrile, several values = mixture of 2 or more isomers; for chromatographic logP: reversed-phase HPLC column (C 18)
Description: In table 1, the log P values were determined in accordance with EEC Directive 79/831 Annex V.A8 by HPLC (High Performance Liquid Chromatography) on a reversed-phase column (C 18), using the method described below:
Temperature: 40° C.; Mobile phases: 0.1% aqueous formic acid and acetonitrile; linear gradient from 10% acetonitrile to 90% acetonitrile.
Calibration was carried out using unbranched alkan-2-ones (comprising 3 to 16 carbon atoms) with known log P values (determination of the log P values by the retention times using linear interpolation between two successive alkanones). lambda-max-values were determined using UV-spectra from 200 nm to 400 nm and the peak values of the chromatographic signals.

[6] = tested on: Botrytis cinerea; assay: In vivo preventive test on Botrytis cinerea (grey mould), gherkin plants; conditions: 500 ppm of active ingredient, preventive spray, grading 4 to 5 days after contamination
Description: as §5
Gherkin plants (“Vert petit de Paris” variety), sown in starter cups on a 50/50 peat soil pozzolana substrate and grown at 24° C., are treated at the Z11 cotyledon stage by spraying with the active ingredient prepared as described above. Plants, used as controls, are treated with the mixture of acetone/tween/DMSO/water not containing the active material.
After 24 hours, the plants are contaminated by spraying the cotyledons with an aqueous suspension of cryopreserved Botrytis cinerea spores (50 000 spores per mL). The spores are suspended in a nutrient solution composed of 10 g/L of PDB, 50 g/L of D-Fructose, 2 g/L of NH4NO3 and 1 g/L of KH2PO4. The contaminated gherkin plants are incubated at 17° C. and at 90% relative humidity.
Grading (% of efficacy) is carried out 4 to 5 days after the contamination, in comparison with the control plants.
Under these conditions, good (at least 70%) to total protection is observed at a dose of 500 ppm of active ingredient with the following compounds from table F: […]

[7] = tested on: Pyrenophora teres; assay: In vivo preventive test on Pyrenophora teres (barley); conditions: barley plants, grading 14 days after contamination
Description: as §1
Barley plants (“Plaisant” variety), sown in starter cups on a 50/50 peat soil pozzolana substrate and grown at 22° C., are treated at the 1 leaf stage (10 cm height) by spraying with the active ingredient prepared as described above. Plants, used as controls, are treated with the mixture of acetone/tween/DMSO/water not containing the active material.
After 24 hours, the plants are contaminated by spraying the leaves with an aqueous suspension of Pyrenophora teres spores (12 000 spores per mL). The spores are collected from a 12-day-old culture.
The contaminated barley plants are incubated for 48 hours at 20° C. and at 100% relative humidity, and then for 12 days at 20° C. at 70-80% relative humidity.
Grading (% of efficacy) is carried out 14 days after the contamination, in comparison with the control plants.
Under these conditions, good (at least 70%) to total protection is observed at a dose of 500 ppm of active ingredient with the following compounds from table H1: […]

[8] = tested on: Alternaria brassicae; assay: In vivo preventive test on Alternaria brassicae (leaf spot on radish); conditions: radish plants
Description: as §1
Radish plants (“Pernod Clair” variety), sown in starter cups on a 50/50 peat soil pozzolana substrate and grown at 17° C., are treated at the cotyledon stage by spraying with the active ingredient prepared as described above. Plants, used as controls, are treated with the mixture of acetone/tween/DMSO/water not containing the active material.
After 24 hours, the plants are contaminated by spraying the cotyledons with an aqueous suspension of Alternaria brassicae spores (50 000 spores per mL). The spores are collected from a 15-day-old culture.
The contaminated radish plants are incubated at 20° C. and at 100% relative humidity.
Grading (% of efficacy) is carried out 6 days after the contamination, in comparison with the control plants.
Under these conditions, high (at least 80%) to excellent (at least 90%) protection is observed at a dose of 500 ppm of active ingredient with the following compounds from table C1: […]

[9] = 500 ppm of active ingredient, preventive spray, grading 11 days after contamination (table K1)
[10] = dose 100 ppm, comparison with saturated analogues (table K2)
[11] = dose 500 ppm, comparison with saturated analogues (table K2)
[12] = 500 ppm of active ingredient, preventive spray

| chromatographic logP [5] | Structure (SMILES) | Efficacy [1] | Efficacy [2] | Efficacy [3] | Efficacy [4, 9] | logP [5] | Efficacy [6] | Efficacy ([7]; Table H2, 100 ppm, preventive) | Efficacy [4, 10] | Efficacy [4, 11] | Efficacy [7, 12] | Efficacy ([8]; Table C1, 500 ppm, grading 6 days after contamination) | Efficacy ([8]; Table C2, dose 100 ppm, 6 days after contamination) | Efficacy ([8]; Table C2, dose 100 ppm, 6 days after contamination, listed as 1.32) | Efficacy ([8]; Table C2, dose 500 ppm, 6 days after contamination) | Efficacy ([8]; Table C2, dose 500 ppm, 6 days after contamination, listed as 1.32) |
| --- | --- | --- | --- | --- | --- | --- | --- | --- | --- | --- | --- | --- | --- | --- | --- | --- |
| – | Cn1nc(C(F)F)c(C(=O)N(Cc2ccccc2C2=CCCCCC2)C2CC2)c1Cl [I.51] | 88% | 81% | 83% | 96% | 5.06 | – | – | – | – | – | – | – | – | – | – |
| – | Cn1cc(C(=O)N(Cc2ccccc2C2=CCCCCC2)C2CC2)c(C(F)F)c1 [I.50] | 81% | 100% | 100% | 99% | 4.93 | 98% | – | – | – | – | – | – | – | – | – |
| – | Cn1nc(C(F)F)c(C(=O)N(Cc2ccccc2C2=CCCC2)C2CC2)c1F [I.3] | 98% | 98% | 100% | 100% | 4.06 | – | 86% | 99% | 100% | – | – | – | – | – | – |
| – | CC(c1ccccc1C1=CCCCC1)N(C(=O)c1c(C(F)F)nn(C)c1F)C1CC1 (racemic) [I.32] | 98% | 100% | 100% | – | 4.61 | – | – | – | – | 97% | 98% | 98% | at least 95% | 98% | at least 95% |
| – | Cn1nc(C(F)F)c(C(=O)N(Cc2ccccc2C2=CCCCCC2)C2CC2)c1F [I.53] | 98% | 100% | 100% | 100% | 4.85 | 100% | – | – | – | 79% | – | – | – | – | – |
| – | Cn1cc(C(=O)N(Cc2ccccc2C2=CCCCCC2)C2CC2)c(C(F)F)n1 [I.49] | 81% | 88% | 100% | 99% | 4.44 | 100% | – | – | – | 79% | – | – | – | – | – |
| – | CC1CC=C(c2ccc(Cl)cc2CN(C(=O)c2c(C(F)F)nn(C)c2F)C2CC2)CC1 (racemic) [I.46] | 75% | 86% | 100% | – | 5.36 | – | – | – | – | – | – | – | – | – | – |
| – | Cn1nc(C(F)F)c(C(=S)N(Cc2cc(Cl)ccc2C2=CCCCC2)C2CC2)c1F [I.43] | 78% | 97% | 80% | 89% | 5.56 | – | – | – | – | 71% | – | – | – | – | – |
| – | O=C(c1ccsc1I)N(Cc1ccccc1C1=CCCCC1)C1CC1 [I.31] | – | – | – | – | 5.22 | 100% | – | – | – | – | – | – | – | – | – |
| – | Cn1cc(C(=O)N(Cc2ccccc2C2=CCCCC2)C2CC2)c(C(F)F)c1 [I.30] | – | – | 83% | 78% | 4.46 | 81% | – | – | – | – | – | – | – | – | – |
| – | Cn1nc(C(F)F)c(C(=O)N(Cc2ccccc2C2=CCCCC2)C2CC2)c1F [I.28] | 100% | 94% | 100% | 100% | 4.49 | 100% | – | 98% | 100% | 79% | – | – | – | – | – |
| – | Cn1nc(C(F)F)c(C(=O)N(Cc2ccccc2C2=CCCC2)C2CC2)c1Cl [I.4] | 100% | – | – | 99% | 4.26 | 77% | – | – | – | – | – | – | – | – | – |
| – | Cn1nc(C(F)F)c(C(=O)N(Cc2cc(C3=CCCC3)ccc2C2=CCCC2)C2CC2)c1F [I.18] | – | – | – | – | 5.62 | 100% | – | – | – | – | – | – | – | – | – |
| – | Cn1cc(C(=O)N(Cc2ccccc2C2=CCCC2)C2CC2)c(C(F)F)n1 [I.2] | 94% | 88% | 94% | 100% | 3.63 | 100% | – | – | – | – | – | – | – | – | – |
| – | Cn1cc(C(=O)N(Cc2ccccc2C2=CCCCC2)C2CC2)c(C(F)F)n1 [I.27] | 88% | 94% | 98% | 98% | 3.99 | 100% | – | 24% | 98% | – | – | – | – | – | – |
| 4.34 | CC(c1cc(F)ccc1C1=CCCC1)N(C(=O)c1c(C(F)F)nn(C)c1F)C1CC1 (stereo not drawn) [I.25, N-{1-[2-(cyclopent-1-en-1-yl)-5-fluorophenyl]ethyl}-N-cyclopropyl-3-(difluoromethyl)-5-fluoro-1-methyl-1H-pyrazole-4-carboxamide] | – | 100% | 100% | – | – | 100% | – | – | – | 100% | – | – | – | – | – |
| 4.69 | Cn1nc(C(F)F)c(C(=O)N(Cc2cc(F)ccc2C2=CCCCC2)C2CC2)c1Cl [I.44, 5-chloro-N-[2-(cyclohex-1-en-1-yl)-5-fluorobenzyl]-N-cyclopropyl-3-(difluoromethyl)-1-methyl-1H-pyrazole-4-carboxamide] | 81% | 79% | – | – | – | – | – | – | – | – | – | – | – | – | – |
